In patent US11578055B2, “Triazacyclododecansulfonamide (“TCD”)-based protein secretion inhibitors” (KEZAR LIFE SCIENCES, priority 2018, dated 2023):
Where a name gives a salt, the structure may show the parent alone.

Columns and labels:
[1] = system: multiple myeloma cell line U266B1; test: U266 Cell Viability Assay; format: cell-based, human; conditions: Homo sapiens, U-266; 48 hr, U266; read-out: 48 hr U266 Viability Celltiter-Glo: Mean EC50
How it was run: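 U266B1 myeloma cells in RPMI 1640 with 10% FBS were treated with compound dilutions for 48 h at 37° C, 5% CO2. Viability was read as CellTiter-Glo luminescence. Data for structures drawn without stereochemistry refer to stereoisomer mixtures.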

[2] = system: full length IL-2 (amino acids 1-153) fused to Gaussia Luciferase; test: Dox Induced IL2-FL-Gluc Assay; format: cell-based; conditions: 24 hr, 293FRT/TO; read-out: 24 hr Dox Inducible IL2FLGluc 293FRT/TO: Mean IC50
How it was run: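 Flp-In 293 T-REx stable line expressing full-length IL-2 (aa 1-153) with C-terminal Gaussia luciferase fusion under doxycycline-inducible control. Cells plated the day before; compound dilutions added in DMSO/media containing doxycycline, incubated at 37° C, 5% CO2.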

[3] = system: full length PD1 (amino acids 1-288) fused to Firefly Luciferase; test: Dox Induced PD1-FL-Gluc Assay; format: cell-based; conditions: 24 hr, 293FRT/TO; read-out: 24 hr Dox Inducible PD1FLFluc 293FRT/TO: Mean IC50
Text: FIp-In 293 T-REx™ cells were transfected with pcDNA™5/FRT/TO plasmid inserted with cDNA encoding Firefly Luciferase fused to the 3′ end of cDNA encoding full length PD1 (amino acids 1-288). Transfected cells were selected for resistance to the selectable markers Hygromycin and Blasticidin to create a stable cell line that contained the PD1-FL/Firefly Luciferase cDNA insert whose expression was regulated under the T-REx™ system. The day before assay, cells were trypsinized and plated in 384-well tissue culture plates. The next day, compound dilutions in DMSO/media containing doxycycline were added to the wells and incubated at 37° C., 5% CO2.
For chemical structures that include one or more stereoisomers, but are illustrated without indicating stereochemistry, the assay data refers to a mixture of stereoisomers.

[4] = In Vitro Microsome Stability Assay (monkey); format: in vitro ADME; conditions: monkey, 30 min, NADPH
How it was run: (§1)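 Species liver microsomes in potassium phosphate buffer were preincubated at 37 °C for 3–5 min with test compound (added from 0.25 mM DMSO stock), then started with NADPH. Samples at 0 and 30 min were quenched with acetonitrile containing internal standard and analysed by LC-MS/MS; % remaining at 30 min used analyte/IS AUC ratios relative to t=0.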

[5] = system: PD1 signal sequence plus 10 amino acids fused to Gaussia Luciferase (PD1-ss+10aa/Gaussia Luciferase); test: Dox Induced PD1-ss-Gluc Assay; format: cell-based; conditions: 24 hr, 293FRT/TO; read-out: 24 hr Dox Inducible PD1ssGluc 293FRT/TO: Mean IC50
How it was run: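 Stable Flp-In 293 T-REx line expressing the fusion under tetracycline-inducible control, plated the day before assay. Compound dilutions added with doxycycline and incubated at 37 °C, 5% CO2; unspecified stereocentres mean data refer to stereoisomer mixtures.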

[6] = In Vitro Microsome Stability Assay (mouse); format: in vitro ADME; conditions: mouse, 30 min, NADPH
How it was run: as §1

[7] = In Vitro Microsome Stability Assay (rat); format: in vitro ADME; conditions: rat, 30 min, NADPH
How it was run: as §1

[8] = system: full length TNFα (amino acids 1-233) fused to Gaussia Luciferase; test: Dox Induced TNFα-FL-Gluc Assay; format: cell-based; conditions: 24 hr, 293FRT/TO; read-out: 24 hr Dox Inducible TNFaFLGluc 293FRT/TO: Mean IC50
How it was run: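 Stable Flp-In 293 T-REx line expressing doxycycline-inducible full-length TNFα fused to Gaussia luciferase; cells plated the day before, then treated with compound dilutions in doxycycline-containing medium at 37° C, 5% CO2. Unspecified stereocentres mean stereoisomer mixtures were tested.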

[9] = system: multiple myeloma cell line NCl-H929; test: H929 Cell Viability Assay; format: cell-based, human; conditions: Homo sapiens, NCI-H929, 48 h, H929, read-out: 48 hr H929 Viability Celltiter-Glo: Mean EC50
How it was run: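 NCI-H929 myeloma cells in RPMI 1640 with 10% FBS were treated with compound dilutions for 48 h at 37 °C, and viability was then read by CellTiter-Glo luminescence. Compounds drawn without stereochemistry were tested as stereoisomer mixtures.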

[10] = In Vitro Microsome Stability Assay (human); format: in vitro ADME; conditions: human, 30 min, NADPH
How it was run: as §1

SMILES	EC50 [1] [nM]	IC50 [2] [nM]	IC50 [3] [nM]	Liver Microsome Stability-% Left after 30 min w/ NADPH (%) Monkey [4] [%]	IC50 [5] [nM]	Liver Microsome Stability-% Left after 30 min w/ NADPH (%) Mouse [6] [%]	Liver Microsome Stability-% Left after 30 min w/ NADPH (%) Rat [7] [%]	IC50 [8] [nM]	EC50 [9] [nM]	Liver Microsome Stability-% Left after 30 min w/ NADPH (%) Human [10] [%]
C[C@H]1CN(S(=O)(=O)c2ccc(N(C)C)cc2)CCCN(CC2CCCCC2)CCCN(S(=O)(=O)N2CCC(c3ccccc3)CC2)C1 [A77, 4-{[(3S)-9-(cyclohexylmethyl)-3-methyl-5-[(4-phenylpiperidin-1-yl)sulfonyl]-1,5,9-triazacyclododecan-1-yl]sulfonyl}-N,N-dimethylaniline]	> 25000	360	338	20.8	95	37.3	32.5	5540	4010	30.1
C[C@@H]1CN(S(=O)(=O)c2ccc(N(C)C)cc2)CCCN(CC2CCCCC2)CCCN(S(=O)(=O)N2CCC(c3ccccc3)CC2)C1 [A76, 4-{[(3 R)-9-(cyclohexylmethyl)-3-methyl-5-[(4-phenylpiperidin-1-yl)sulfonyl]-1,5,9-triazacyclododecan-1-yl]sulfonyl}-N,N-dimethylaniline]	> 25000	> 25000	> 25000	35.7	> 25000	28.6	33.9	> 25000	> 25000	53.1
C=C1CN(S(=O)(=O)c2ccc(N(C)C)cc2)CCCN(CC2CCCCC2)CCCN(S(=O)(=O)N2CCN(c3ccccc3)CC2)C1 [A36, 4-{[9-(cyclohexylmethyl)-3-methylidene-5-[(4-phenylpiperazin-1-yl)sulfonyl]-1,5,9-triazacyclododecan-1-yl]sulfonyl}-N,N-dimethylaniline]	> 25000	301	319	1.54	118	1.85	0.94	> 21800	> 15400	6.69
CN(C)c1ccc(S(=O)(=O)N2CCCN(CC3CCCCC3)CCCN(S(=O)(=O)N3CCC(c4ccccc4)CC3)C/C(=N/O)C2)cc1 [A75, 9-(cyclohexylmethyl)-1-((4-(dimethylamino)phenyl)sulfonyl)-5-((4-phenylpiperidin-1-yl)sulfonyl)-1,5,9-triazacyclododecan-3-one oxime]	> 25000	233	256	0.28	104	2.75	7.54	3780	3030	3.08
CC1CCN(S(=O)(=O)N2CCCN(CC3CCCCC3)CCCN(S(=O)(=O)c3ccc(N(C)C)cc3)CC3(CC3)C2)CC1 [A22, 4-{[9-(cyclohexylmethyl)-13-[(4-methylpiperidin-1-yl)sulfonyl]-5,9,13-triazaspiro[2.11]tetradecan-5-yl]sulfonyl}-N,N-dimethylaniline]	> 25000	370	404	0.11	156	0.12	0.4	6380	6670	0.16
C=C1CN(S(=O)(=O)c2ccc(N(C)C)cc2)CCCN(CC2CCCCC2)CCCN(S(=O)(=O)N2CCc3ccccc3C2)C1 [A50, 4-{[9-(cyclohexylmethyl)-3-methylidene-5-(1,2,3,4-tetrahydroisoquinoline-2-sulfonyl)-1,5,9-triazacyclododecan-1-yl]sulfonyl}-N,N-dimethylaniline]	6540	57	74.1	0.79	22.2	70.1	3.6	661	1010	1.32
CN(C)c1ccc(S(=O)(=O)N2CCCN(CC3CCCCC3)CCCN(S(=O)(=O)N3CCC(c4ccccc4)CC3)CC3(CC3)C2)cc1 [A29, 4-{[9-(cyclohexylmethyl)-13-[(4-phenylpiperidin-1-yl)sulfonyl]-5,9,13-triazaspiro[2.11]tetradecan-5-yl]sulfonyl}-N,N-dimethylaniline]	> 25000	447	591	19.5	241	32.4	43.3	> 25000	> 25000	39.6
C=C1CN(S(=O)(=O)c2ccc(N(C)C)cc2)CCCN(CC2CCCCC2)CCCN(S(=O)(=O)N2CC=C(c3ccc(Cl)cc3)CC2)C1 [A74, 4-[(5-{[4-(4-chlorophenyl)-1,2,3,6-tetrahydropyridin-1-yl]sulfonyl}-9-(cyclohexylmethyl)-3-methylidene-1,5,9-triazacyclododecan-1-yl)sulfonyl]-N,N-dimethylaniline]	> 25000	248	258	60.6	77.4	53.7	55.7	> 25000	> 25000	56.3
Cc1ccc(S(=O)(=O)N2CCCN(CC3CCCCC3)CCCN(S(=O)(=O)c3ccc(N(C)C)cc3)CC3(CC3)C2)cc1 [A11, 4-{[9-(cyclohexylmethyl)-13-(4-methylbenzenesulfonyl)-5,9,13-triazaspiro[2.11]tetradecan-5-yl]sulfonyl}-N,N-dimethylaniline hydrochloride]	> 25000	624	866	0.08	365	0.18	0.17	> 25000	> 25000	0.21
C=C1CN(S(=O)(=O)c2c(F)cc(N(C)C)cc2F)CCCN(CC2CCCCC2)CCCN(S(=O)(=O)N2CCC(c3ccccc3)CC2)C1 [A86]	> 25000	395	429	29.2	–	34.1	39.9	> 25000	5630	41.3
C=C1CN(S(=O)(=O)c2ccc(C)cc2)CCCN(CC2CCCCC2)CCCN(S(=O)(=O)c2ccc(N(C)C)cc2)C1 [A4]	> 25000	–	311	1.17	93.9	0.56	1.17	3760	1220	0.25
